Measurements published in patent US20230390345A1, “COMBINATION THERAPY COMPRISING HER-2-DC1 VACCINE, A PROBIOTIC, AND SEMAPHORIN” (H. LEE MOFFITT CANCER CENTER AND RESEARCH INSTITUTE, INC., priority 2020, published 2023).

Key:
4T1 = assay: Therapies in TNBC model 4T1 (FIG. 8); assay type: in vivo, Balb/C mice; details: 4T1 TNBC model
Procedure: (§1) Balb/C mice or C57BL/6 mice received tumor cells on day 0 followed by different treatments; two doses of Taxol given intraperitoneally (i.p.) once a week; CDK inhibitor, abemaciclib was administered by oral gavage till end point; Anti-PD-L1 was given i.p. twice a week until end point; DC1 vaccine was given intratumorally.

TUBO tumors = assay: Monotherapies in HER2+ BC murine model (FIG. 8); assay type: in vivo, Balb/C mice; details: monotherapy
Procedure: as §1

CC(=O)O[C@H]1C(=O)[C@@]2(C)[C@H]([C@H](OC(=O)c3ccccc3)[C@]3(O)C[C@H](OC(=O)[C@H](O)[C@@H](NC(=O)c4ccccc4)c4ccccc4)C(C)=C1C3(C)C)[C@]1(OC(C)=O)CO[C@@H]1C[C@@H]2O [taxol, paclitaxel]
tumor growth (4T1): no effect on tumor growth
tumor growth (TUBO tumors): modestly delayed tumor growth
